Test results taken from patent publication US20070292906A1, “ASSAY FOR MEASURING ACYLTRANSFERASE ACTIVITY” (Bristol-Myers Squibb Company, priority 2006, published 2007).

Experiments:
human DGAT1 = molecular target: T1, human DGAT1 (Homo sapiens, UniProt O75907); assay: substrate concentration titration in TLC assay, DGAT1; assay type: biochemical; conditions: Michaelis Menton fit, duplicate
T1 construct: made in house; host or cells: Sf9 insect cells (baculovirus), used as membrane extracts
T1 sequence (O75907 1-488): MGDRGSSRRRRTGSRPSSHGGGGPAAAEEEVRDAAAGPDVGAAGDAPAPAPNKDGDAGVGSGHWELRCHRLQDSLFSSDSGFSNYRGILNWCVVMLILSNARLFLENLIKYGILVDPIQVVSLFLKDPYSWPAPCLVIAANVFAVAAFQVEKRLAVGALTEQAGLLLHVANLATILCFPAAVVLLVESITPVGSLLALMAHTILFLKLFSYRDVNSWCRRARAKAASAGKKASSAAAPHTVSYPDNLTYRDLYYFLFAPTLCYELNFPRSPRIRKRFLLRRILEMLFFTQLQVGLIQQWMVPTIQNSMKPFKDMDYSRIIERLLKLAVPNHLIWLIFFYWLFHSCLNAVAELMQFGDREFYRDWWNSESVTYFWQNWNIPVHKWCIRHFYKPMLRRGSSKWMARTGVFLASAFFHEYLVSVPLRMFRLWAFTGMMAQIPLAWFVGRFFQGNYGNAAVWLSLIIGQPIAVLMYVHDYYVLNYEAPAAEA
Procedure: (§1) The data shown in FIG. 1B correspond to a TLC plate assay and various substrates that could be used in the assay. Aliquots of membrane extracts (30 μg) derived from either wild type baculovirus infected Sf9 cells (WT) (lanes 4,5) infected with recombinant human DGAT1 baculovirus (DGAT1) (lanes 6-8), or with recombinant human MGAT3 baculovirus (MGAT3) (lanes 1-3), were subjected to enzyme reactions in Buffer A (150 mM potassium phosphate buffer, pH 7.4) with 50 μM [^14C]oleoyl-CoA (40,000 d.p.m./nmol specific activity) as the acyl donor, and 100 μM 1,2-dioleoylglycerol (DOG), or 2-monooleoylglycerol (2-MOG) as the acyl acceptor (delivered by acetone, final vehicle concentration at 2%).
(§2) Assays were carried out for 10 minutes as described in (Cheng et al., Biochem J. 2001 Nov. 1;359 (Pt 3):707-14.). The products were resolved by TLC in a solvent comprising hexane: ether: acetic acid in a ration of 170:30:1, respectively. The products were visualized by a Phosphoimage exposure. […]
(§3) Briefly, substrate efficiency was determined from results obtained using a TLC acyltransferase assay. […] The enzymatic products were quantified and the kinetic parameters Vmax and Km were derived using the Michaelis Menton Equation as applied by Prism® software. […]

human MGAT3 = molecular target: T2, human MGAT3 (Homo sapiens, UniProt Q86VF5); assay: substrate concentration titration in TLC assay, MGAT3; assay type: biochemical; conditions: Michaelis Menton fit, duplicate
T2 construct: made in house; host or cells: Sf9 insect cells (baculovirus), used as membrane extracts
T2 sequence (Q86VF5 1-341): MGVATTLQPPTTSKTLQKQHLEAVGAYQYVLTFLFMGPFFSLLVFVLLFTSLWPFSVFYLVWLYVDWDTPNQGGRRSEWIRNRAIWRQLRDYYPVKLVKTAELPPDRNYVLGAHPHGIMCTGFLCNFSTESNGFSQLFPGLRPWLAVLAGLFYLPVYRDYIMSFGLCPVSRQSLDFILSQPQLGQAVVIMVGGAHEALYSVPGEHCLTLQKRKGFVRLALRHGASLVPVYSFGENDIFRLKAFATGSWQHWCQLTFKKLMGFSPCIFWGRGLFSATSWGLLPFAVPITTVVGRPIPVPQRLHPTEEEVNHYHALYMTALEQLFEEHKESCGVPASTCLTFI
Procedure: as §1, §2, §3

CCCCCCCC/C=C\CCCCCCCC(=O)OC(CO)CO [MOG, 2-monooleoylglycerol]
Km with MOG relative to 1,2-sn-dioleoylglycerol (human DGAT1): significantly reduced | Vmax with MOG relative to 1,2-sn-dioleoylglycerol (human DGAT1): more than 20 fold | Km with MOG relative to 1,2-sn-dioleoylglycerol (human MGAT3): significantly reduced | Vmax with MOG relative to 1,2-sn-dioleoylglycerol (human MGAT3): more than 50 fold
